Article PMC6364417, “Kinase inhibitor library screening identifies synergistic drug combinations effective in sensitive and resistant melanoma cells” (Journal of Experimental & Clinical Cancer Research : CR, 2019)

Legend:
Assay in all cases: Kinase inhibitor library screening, PrestoBlue cell viability, 1 or 10 μM, 72 h
[1] = test system: 501Mel cells (parental); details: 501Mel Parental, 72 h; for cell viability, 501Mel Parental, 1μΜ / cell viability, 501Mel Parental, 10μΜ: in %
Procedure, shortened: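 Sensitive parental cells and their resistant derivatives were exposed to library compounds for 72 h. Values represent viability as a percentage of untreated cells.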

[2] = test system: A375-GP cells (Dabrafenib-resistant); details: A375 GP, 72 h; for cell viability, A375 GP, 1μΜ / cell viability, A375 GP, 10μΜ: in %
[3] = test system: 501Mel-XP cells (Vemurafenib-resistant); details: 501Mel XP, 72 h; for cell viability, 501Mel XP, 1μΜ / cell viability, 501Mel XP, 10μΜ: in %
[4] = test system: 501Mel-GP cells (Dabrafenib-resistant); details: 501Mel GP, 72 h; for cell viability, 501Mel GP, 1μΜ / cell viability, 501Mel GP, 10μΜ: in %
[5] = test system: A375 cells (parental); details: A375 Parental, 72 h; for cell viability, A375 Parental, 1μΜ / cell viability, A375 Parental, 10μΜ: in %
[6] = test system: A375-XP cells (Vemurafenib-resistant); details: A375 XP, 72 h
[7] = test system: IGR37-XP cells (Vemurafenib-resistant); details: IGR37 XP, 72 h; for cell viability, IGR37 XP, 1μΜ: in %
[8] = test system: IGR37-GP cells (Dabrafenib-resistant); details: IGR37 GP, 72 h; for cell viability, IGR37 GP, 1μΜ: in %
[9] = test system: IGR37 cells (parental); details: IGR37 Parental, 72 h; for cell viability, IGR37 Parental, 1μΜ / cell viability, IGR37 Parental, 10μΜ: in %

| SMILES | cell viability, 501Mel Parental, 1μΜ ([1]; 1μΜ) | cell viability, 501Mel Parental, 10μΜ ([1]; 10μΜ) | cell viability, A375 GP, 1μΜ [2] | cell viability, A375 GP, 10μΜ ([2]; 10μΜ) | cell viability, 501Mel XP, 1μΜ ([3]; 1μΜ) | cell viability, 501Mel XP, 10μΜ ([3]; 10μΜ) | cell viability, 501Mel GP, 1μΜ ([4]; 1μΜ) | cell viability, 501Mel GP, 10μΜ ([4]; 10μΜ) | cell viability, A375 Parental, 1μΜ ([5]; 1μΜ) | cell viability, A375 Parental, 10μΜ ([5]; 10μΜ) | cell viability, A375 XP, 10μΜ ([6]; 10μΜ, in %) | cell viability, IGR37 XP, 10μΜ ([7]; 10μΜ) [%] | cell viability, IGR37 XP, 1μΜ ([7]; 1μΜ) | cell viability, IGR37 GP, 10μΜ ([8]; 10μΜ) [%] | cell viability, IGR37 GP, 1μΜ ([8]; 1μΜ) | cell viability, IGR37 Parental, 1μΜ ([9]; 1μΜ) | cell viability, IGR37 Parental, 10μΜ ([9]; 10μΜ) | also measured |
| --- | --- | --- | --- | --- | --- | --- | --- | --- | --- | --- | --- | --- | --- | --- | --- | --- | --- | --- |
| CCc1cc2c(cc1N1CCC(N3CCOCC3)CC1)C(C)(C)c1[nH]c3cc(C#N)ccc3c1C2=O [CH5424802] |  |  |  |  |  |  |  |  |  |  |  |  |  |  |  |  |  | cell viability (kinase inhibitor library screening) ([1]; 1μΜ): 109.6%; cell viability (kinase inhibitor library screening) ([1]; 10μΜ): 80.1%; cell viability (kinase inhibitor library screening) ([2]; 10μΜ): 71.2%; cell viability (kinase inhibitor library screening) ([3]; 1μΜ): 99.2%; cell viability (kinase inhibitor library screening) ([3]; 10μΜ): 32.3%; cell viability (kinase inhibitor library screening) ([4]; 1μΜ): 104.8%; cell viability (kinase inhibitor library screening) ([4]; 10μΜ): 72.7%; cell viability (kinase inhibitor library screening) ([5]; 10μΜ): 64.9%; cell viability (kinase inhibitor library screening) ([5]; 1μΜ): 106.9%; cell viability (kinase inhibitor library screening) ([6]; 1μΜ): 105.6%; cell viability (kinase inhibitor library screening) ([6]; 10μΜ): 75.8%; cell viability (kinase inhibitor library screening) ([7]; 1μΜ): 106.4%; cell viability (kinase inhibitor library screening) ([7]; 10μΜ): 5.0%; cell viability (kinase inhibitor library screening) ([8]; 1μΜ): 105.2%; cell viability (kinase inhibitor library screening) ([8]; 10μΜ): 10.4%; cell viability (kinase inhibitor library screening) ([9]; 1μΜ): 103.9%; cell viability (kinase inhibitor library screening) ([9]; 10μΜ): 96.2% |
| C=CC(=O)Nc1cc2c(Nc3ccc(F)c(Cl)c3)ncnc2cc1OCCCN1CCOCC1 [CI-1033 (Canertinib)] | 103.3 | 35.1 | 99.4 | 23.3 | 93.9 | 0.248 | 102.8 | 1.4 | 105.5 | 24.5 | 15.2 | 23.7 | 99.0 | 30.7 | 92.4 | 98.8 | 53.7 |  |
| O=C(NOCC1CC1)c1ccc(F)c(F)c1Nc1ccc(I)cc1Cl [CI-1040 (PD184352)] | 64.1 | 50.2 | 35.2 | 16.8 | 81.0 | 46.4 | 98.8 | 56.0 | 22.5 | 21.5 | 12.9 | 26.4 | 81.9 | 55.9 | 84.8 | 43.0 | 35.8 | cell viability, A375 XP, 1μΜ ([6]; 1μΜ, in %): 44.6 |
